Assay results: ChEMBL document CHEMBL5512597, “Triazole hybrid compounds: A new frontier in malaria treatment” (Eur J Med Chem, 2023)
Values after ≈ are worked out from the molar mass of the structure shown.

What was measured:
Plasmodium falciparum [1] = assay: Antimalarial activity against Plasmodium falciparum assessed as parasite growth inhibition incubated for 36 to 40 hrs by JSB staining based analysis; type: functional, organism-based
Plasmodium falciparum [2] = assay: Antimalarial activity against CQ-resistant Plasmodium falciparum K1; type: functional, organism-based
[3] = Cytotoxicity against human erythrocytes; type: toxicity, cell-based, Erythrocyte
Plasmodium falciparum [4] = assay: Antimalarial activity against Plasmodium falciparum 3D7 infected in A+ human erythrocytes assessed as reduction in parasite growth incubated for 72 hrs by SYBR Green I staining based analysis; type: functional, organism-based; conditions: 3D7, Erythrocyte
Plasmodium falciparum [5] = assay: Antimalarial activity against Plasmodium falciparum Dd2 infected in A+ human erythrocytes assessed as reduction in parasite growth incubated for 72 hrs by SYBR Green I staining based analysis; type: functional, organism-based; conditions: Dd2, Erythrocyte
Plasmodium falciparum [6] = assay: Antimalarial activity against CQ-resistant Plasmodium falciparum Dd2; type: functional, organism-based
Plasmodium falciparum [7] = assay: Antimalarial activity against Plasmodium falciparum K1 infected in A+ human erythrocytes assessed as reduction in parasite growth incubated for 72 hrs by SYBR Green I staining based analysis; type: functional, organism-based; conditions: K1, Erythrocyte
Plasmodium falciparum [8] = assay: Antimalarial activity against Plasmodium falciparum 3D7 at asexual erythrocytic stage assessed as parasite growth inhibition measured after 24 hrs by [3H]-hypoxanthine incorporation assay; type: functional, organism-based
Plasmodium falciparum [9] = assay: Antimalarial activity against Plasmodium falciparum; type: functional, organism-based

## O=c1ccc2ccc(OCc3cn(-c4ccc(OCc5ccc(Cl)cc5)cc4)nn3)cc2o1
Plasmodium falciparum [1]
  IC50: 0.86 µg/mL (≈ 1.87 µM)

## COc1ccc(N2C(=O)[C@@H](Oc3ccccc3)[C@H]2c2ccc(OCc3cn(Cc4ccccc4)nn3)cc2)cc1OC
Plasmodium falciparum [2]
  IC50: 5.14 µM

## C[C@H]1[C@H](OC(=O)CCC(=O)O)O[C@@H]2O[C@@]3(C)CC[C@H]4[C@H](C)CC[C@@H]1[C@@]24OO3 [ARTESUNATE]
[3]
  CC50: > 100 µg/mL
Plasmodium falciparum [4]
  EC50: 0.0144 µM
Plasmodium falciparum [5]
  EC50: 0.0109 µM
Plasmodium falciparum [6]
  IC50: 0.002 µg/mL (≈ 0.0052 µM)
Plasmodium falciparum [7]
  EC50: 0.0052 µM

## O=c1cc(OCc2cn(-c3ccc(S(=O)(=O)N4CCOCC4)cc3)nn2)c2ccccc2o1
Plasmodium falciparum [8]
  IC50: 34.2 µM

## CC1=C(C(=O)Nc2ccc(F)cc2)C(c2ccc(OCc3cn(Cc4ccccc4)nn3)cc2)n2c(nc3ccccc32)N1 (stereo not drawn)
Plasmodium falciparum [9]
  IC50: 0.99 µM

## CCCCc1nc(C)c2ccc(-c3cn(CCOC(=O)CCC(=O)O[C@@H]4O[C@@H]5O[C@@]6(C)CC[C@H]7[C@H](C)CC[C@@H]([C@H]4C)[C@@]57OO6)nn3)cc2c1CCCC
Plasmodium falciparum [4]
  EC50: 0.0092 µM
Plasmodium falciparum [5]
  EC50: 0.01 µM
Plasmodium falciparum [7]
  EC50: 0.0042 µM

## O=C(Cn1cc(CSc2ccc(Br)cc2)nn1)OCc1ccc([N+](=O)[O-])cc1
Plasmodium falciparum [9]
  IC50: 0.184 µM

## O=[N+]([O-])c1ccc(Cn2cc(-c3ccccc3CO)nn2)cc1
[3]
  CC50: 33.3 µg/mL (≈ 107 µM)
Plasmodium falciparum [6]
  IC50: > 100 µg/mL

## C=CCn1cc(COc2ccc([C@@H]3[C@H](Oc4ccccc4)C(=O)N3c3ccc(C)cc3)cc2)nn1
Plasmodium falciparum [2]
  IC50: 8.43 µM

## CO[C@@H]1C(=O)N(c2ccc(OCc3cn(Cc4ccccc4)nn3)cc2)[C@@H]1c1ccc(OCc2cn(Cc3ccccc3)nn2)cc1
Plasmodium falciparum [2]
  IC50: 0.85 µM

## Cc1cc(=O)oc2cc(OCc3cn(-c4ccc(S(=O)(=O)N5CCOCC5)cc4)nn3)c(Cl)cc12
Plasmodium falciparum [8]
  IC50: 50.4 µM

## O=c1ccc2ccc(OCc3cn(-c4ccc(OCc5ccc(F)cc5)cc4)nn3)cc2o1
Plasmodium falciparum [1]
  IC50: 0.49 µg/mL (≈ 1.11 µM)

## CC1=C(C(=O)Nc2ccccc2)C(c2ccc(OCc3cn(Cc4ccccc4)nn3)cc2)n2c(nc3ccccc32)N1 (stereo not drawn)
Plasmodium falciparum [9]
  IC50: 1.66 µM

## CC1=C(C(=O)Nc2ccccc2Cl)C(c2ccc(OCc3cn(Cc4ccccc4)nn3)cc2)n2ncnc2N1 (stereo not drawn)
Plasmodium falciparum [9]
  IC50: 1.68 µM

## C[C@H]1[C@H](OC(=O)CCC(=O)OCCCCc2cn(-c3ccnc4cc(Cl)ccc34)nn2)O[C@@H]2O[C@@]3(C)CC[C@H]4[C@H](C)CC[C@@H]1[C@@]24OO3
Plasmodium falciparum [4]
  EC50: 0.0062 µM
Plasmodium falciparum [5]
  EC50: 0.0044 µM
Plasmodium falciparum [7]
  EC50: 0.0025 µM

## C[C@H]1[C@H](OC(=O)CCC(=O)OCCCc2cn(-c3ccnc4cc(Cl)ccc34)nn2)O[C@@H]2O[C@@]3(C)CC[C@H]4[C@H](C)CC[C@@H]1[C@@]24OO3
Plasmodium falciparum [4]
  EC50: 0.0054 µM
Plasmodium falciparum [5]
  EC50: 0.0046 µM
Plasmodium falciparum [7]
  EC50: 0.0024 µM

## Br.O=[N+]([O-])c1ccc(Cn2cc(-c3ccccc3C[P+](c3ccccc3)(c3ccccc3)c3ccccc3)nn2)cc1
[3]
  CC50: > 100 µg/mL
Plasmodium falciparum [6]
  IC50: > 100 µg/mL

## C[C@H]1[C@H](OC(=O)CCC(=O)OCc2cn(-c3ccnc4cc(Cl)ccc34)nn2)O[C@@H]2O[C@@]3(C)CC[C@H]4[C@H](C)CC[C@@H]1[C@@]24OO3
Plasmodium falciparum [4]
  EC50: 0.0053 µM

## Cc1cc(=O)oc2cc(OCc3cn(-c4ccc(S(N)(=O)=O)cc4)nn3)ccc12
Plasmodium falciparum [8]
  IC50: 3.64 µM

## C=C[C@H]1CN2CC[C@H]1C[C@H]2[C@H](O)c1ccnc2ccc(OC)cc12 [QUININE]
Plasmodium falciparum [1]
  IC50: 0.268 µg/mL (≈ 0.826 µM)
Plasmodium falciparum [9]
  IC50: 0.083 µM

## Cc1cccc(COc2ccc(-n3cc(COc4cc(=O)oc5ccccc45)nn3)cc2)c1
Plasmodium falciparum [1]
  IC50: 1.05 µg/mL (≈ 2.39 µM)

## C[C@H]1[C@@H](OCCCn2cc(-c3ccnc4cc(Cl)ccc34)nn2)O[C@@H]2O[C@@]3(C)CC[C@H]4[C@H](C)CC[C@@H]1[C@@]24OO3
Plasmodium falciparum [4]
  EC50: 0.0094 µM
Plasmodium falciparum [5]
  EC50: 0.0052 µM
Plasmodium falciparum [7]
  EC50: 0.0038 µM

## O=C1[C@@H](Oc2ccccc2)[C@@H](c2ccc(OCc3cn(Cc4ccccc4)nn3)cc2)N1c1ccc(OCc2cn(Cc3ccccc3)nn2)cc1
Plasmodium falciparum [2]
  IC50: < 0.97 µM

## CC1=C(C(=O)Nc2ccc(Cl)cc2)C(c2ccc(OCc3cn(Cc4ccccc4)nn3)cc2)n2ncnc2N1 (stereo not drawn)
Plasmodium falciparum [9]
  IC50: 1.68 µM

## O=[N+]([O-])c1ccc(Cn2cc(CO)nn2)cc1
[3]
  CC50: > 100 µg/mL
Plasmodium falciparum [6]
  IC50: 0.62 µg/mL (≈ 2.65 µM)

## C[C@H]1[C@H](OC(=O)CCC(=O)OCCc2cn(-c3ccnc4cc(Cl)ccc34)nn2)O[C@@H]2O[C@@]3(C)CC[C@H]4[C@H](C)CC[C@@H]1[C@@]24OO3
Plasmodium falciparum [4]
  EC50: 0.008 µM
Plasmodium falciparum [5]
  EC50: 0.0049 µM
Plasmodium falciparum [7]
  EC50: 0.0026 µM

## O=c1cc(OCc2cn(-c3ccc(OCc4ccccc4[N+](=O)[O-])cc3)nn2)c2ccccc2o1
Plasmodium falciparum [1]
  IC50: 0.98 µg/mL (≈ 2.08 µM)

## C[C@H]1[C@H](OCc2cn(-c3ccnc4cc(Cl)ccc34)nn2)O[C@@H]2O[C@@]3(C)CC[C@H]4[C@H](C)CC[C@@H]1[C@@]24OO3
Plasmodium falciparum [4]
  EC50: 0.0275 µM
Plasmodium falciparum [5]
  EC50: 0.0106 µM
Plasmodium falciparum [7]
  EC50: 0.0059 µM

## CC1=C(C(=O)Nc2ccccc2C)C(c2ccc(OCc3cn(Cc4ccccc4)nn3)cc2)n2c(nc3ccccc32)N1 (stereo not drawn)
Plasmodium falciparum [9]
  IC50: 1.53 µM

## CC1=C(C(=O)Nc2ccccc2C)C(c2ccc(OCc3cn(Cc4ccccc4)nn3)cc2)n2ncnc2N1 (stereo not drawn)
Plasmodium falciparum [9]
  IC50: 1.86 µM

## O=[N+]([O-])c1cccc(Cn2cc(CO)nn2)c1
[3]
  CC50: 87.4 µg/mL (≈ 373 µM)
Plasmodium falciparum [6]
  IC50: 0.64 µg/mL (≈ 2.73 µM)

## CC1=C(C(=O)Nc2ccc(C(F)(F)F)cc2)C(c2ccc(OCc3cn(Cc4ccccc4)nn3)cc2)n2ncnc2N1 (stereo not drawn)
Plasmodium falciparum [9]
  IC50: 0.82 µM
